Measured values taken from PMC9330476 (Toxins, 2022).
“Also recorded” adds a separate entry of the source. Bridge positions count the residues as written; N and C are the ends. Ends that are not written are not given here. I, II: the chains in the order shown.

How the values were obtained:
hα7 nAChR = hα7 nAChR (Homo sapiens, UniProt P36544); assay type: cell-based
hα4β2 nAChR = hα4β2 nAChR (Homo sapiens, UniProt P17787+P43681); assay type: cell-based
hα4β2 nAChR, sequence (P43681 29-627 limits assumed): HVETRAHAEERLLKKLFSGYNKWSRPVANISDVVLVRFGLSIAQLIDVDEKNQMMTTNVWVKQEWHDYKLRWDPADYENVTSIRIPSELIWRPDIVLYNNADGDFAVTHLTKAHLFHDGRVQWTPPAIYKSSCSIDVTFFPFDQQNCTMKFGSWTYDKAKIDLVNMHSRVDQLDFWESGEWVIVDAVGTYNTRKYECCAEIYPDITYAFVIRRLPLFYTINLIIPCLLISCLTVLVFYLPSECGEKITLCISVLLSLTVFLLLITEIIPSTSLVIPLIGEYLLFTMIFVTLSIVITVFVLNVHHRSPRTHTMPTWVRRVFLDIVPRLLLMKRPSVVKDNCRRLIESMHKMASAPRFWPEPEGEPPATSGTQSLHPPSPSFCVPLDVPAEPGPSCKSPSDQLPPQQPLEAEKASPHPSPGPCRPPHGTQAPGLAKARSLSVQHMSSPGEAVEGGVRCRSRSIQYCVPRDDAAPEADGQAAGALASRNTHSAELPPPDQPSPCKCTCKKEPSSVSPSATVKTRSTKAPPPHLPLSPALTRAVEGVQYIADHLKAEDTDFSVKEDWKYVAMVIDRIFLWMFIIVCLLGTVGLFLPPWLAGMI
hα4β2 nAChR, sequence (P17787 26-502 limits assumed): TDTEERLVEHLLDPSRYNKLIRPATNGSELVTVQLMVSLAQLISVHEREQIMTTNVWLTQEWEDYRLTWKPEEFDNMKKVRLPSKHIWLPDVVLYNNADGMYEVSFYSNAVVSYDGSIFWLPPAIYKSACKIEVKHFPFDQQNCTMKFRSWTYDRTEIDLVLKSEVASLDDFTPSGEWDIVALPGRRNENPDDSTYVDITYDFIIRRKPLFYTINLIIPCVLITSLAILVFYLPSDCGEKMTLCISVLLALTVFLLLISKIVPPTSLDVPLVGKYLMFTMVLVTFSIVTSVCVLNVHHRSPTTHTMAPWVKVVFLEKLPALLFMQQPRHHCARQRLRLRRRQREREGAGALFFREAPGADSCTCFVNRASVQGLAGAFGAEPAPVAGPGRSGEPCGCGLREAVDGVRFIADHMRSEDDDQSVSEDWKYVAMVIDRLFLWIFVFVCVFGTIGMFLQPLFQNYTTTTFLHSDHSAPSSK

hα7 nAChR, sequence (P36544 23-502 limits assumed): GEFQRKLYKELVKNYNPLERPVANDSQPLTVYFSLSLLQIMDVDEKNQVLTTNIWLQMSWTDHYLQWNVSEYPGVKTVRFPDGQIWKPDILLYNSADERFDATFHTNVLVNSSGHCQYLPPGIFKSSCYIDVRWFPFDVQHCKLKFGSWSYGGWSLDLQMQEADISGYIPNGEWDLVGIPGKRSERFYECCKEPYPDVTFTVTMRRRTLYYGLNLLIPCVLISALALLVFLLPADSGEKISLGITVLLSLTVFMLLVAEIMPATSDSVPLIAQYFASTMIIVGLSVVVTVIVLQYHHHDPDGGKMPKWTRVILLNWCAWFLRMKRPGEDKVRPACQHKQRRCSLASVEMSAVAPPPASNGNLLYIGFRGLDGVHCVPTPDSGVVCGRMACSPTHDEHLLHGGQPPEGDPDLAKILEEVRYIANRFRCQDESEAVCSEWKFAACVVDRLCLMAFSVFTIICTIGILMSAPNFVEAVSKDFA

Substance: I: EARITCQPRGRSKWGRCCLTQMCGNYCCYKHGCRCVYHSWRGHGCSC / II: EARITCQPRGRSKWGRCCLTQMCGNYCCYKHGCRCVYHSWRGHGCSC (disulfide I:6-II:18, I:17-I:27, I:18-II:6, I:23-I:35, I:28-I:45, I:33-I:47, II:17-II:27, II:23-II:35, II:28-II:45, II:33-II:47) [αD-FrXXA]
- dissociation / reversibility on hα7 (hα7 nAChR): the slower dissociation was for hα7 subtype (almost irreversible)
- dissociation / reversibility on hα4β2 (hα4β2 nAChR): the fastest was for hα4β2 subtype; also recorded: reversible almost entirely within a few minutes of washing
